Laboratory results taken from PMC5674802 (Molecular cell, 2017).

Biological target: RagA-RagC heterodimer, RagC nucleotide site (Homo sapiens, UniProt Q9HB90)
Assay: UV crosslinking of radiolabelled nucleotide, SDS-PAGE autoradiography
Type: binding

Sequence of RagA-RagC heterodimer, RagC nucleotide site (Q9HB90 2-399): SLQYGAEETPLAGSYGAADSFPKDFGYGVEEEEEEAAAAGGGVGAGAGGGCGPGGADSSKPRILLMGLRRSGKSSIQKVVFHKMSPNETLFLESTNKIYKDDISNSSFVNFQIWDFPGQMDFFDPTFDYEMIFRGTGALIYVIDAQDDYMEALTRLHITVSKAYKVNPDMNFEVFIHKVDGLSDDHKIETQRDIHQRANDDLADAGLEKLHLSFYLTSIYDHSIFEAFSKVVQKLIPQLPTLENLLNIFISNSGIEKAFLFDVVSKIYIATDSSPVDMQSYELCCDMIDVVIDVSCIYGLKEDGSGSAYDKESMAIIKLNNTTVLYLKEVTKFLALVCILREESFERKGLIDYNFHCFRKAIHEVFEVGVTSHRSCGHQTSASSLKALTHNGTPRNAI
Sequence of RagA-RagC heterodimer, RagC nucleotide site (Q7L523 whole entry partner): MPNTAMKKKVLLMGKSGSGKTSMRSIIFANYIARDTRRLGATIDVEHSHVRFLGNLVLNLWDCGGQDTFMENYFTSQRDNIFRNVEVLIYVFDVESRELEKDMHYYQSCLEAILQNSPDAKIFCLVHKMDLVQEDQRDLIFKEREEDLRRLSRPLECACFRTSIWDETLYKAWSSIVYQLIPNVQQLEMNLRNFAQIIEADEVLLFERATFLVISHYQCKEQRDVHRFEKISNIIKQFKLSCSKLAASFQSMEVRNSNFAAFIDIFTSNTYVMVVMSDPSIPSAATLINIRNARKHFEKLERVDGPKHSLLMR

Nc1nc2c(ncn2[C@@H]2O[C@H](COP(=O)(O)OP(=O)(O)OP(=O)(O)O)[C@@H](O)[C@H]2O)c(=O)[nH]1 [GTP]
Kd: 11 nM
